Some test systems named below: KM12 colon; LOX IMVI melanoma; MALME-3M melanoma; NCI-H460 lung; NCI/ADR-RES ovarian; SK-MEL-28 melanoma; SK-OV-3 ovarian; SR leukemia; UACC-257 melanoma; UO-31 renal.
What all share (assay): NCI tumour cell line growth inhibition, 48 h

Molecules are shown by their SMILES.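 Tested at 5 concentrations; 48 h exposure; 96-well plates; endpoints linearly interpolated, else capped at highest concentration. Abbreviation: GI50, concentration required for 50% inhibition of growth. TGI is the concentration that stops growth completely.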 Some results are limits rather than exact numbers.

`CS(=O)(=O)CCNCc1ccoc1-c1ccc2ncnc(Nc3ccc(OCc4ccccc4)cc3)c2c1`: the GI50 in the experiment with KM12 colon is greater than 25000 nM; in the experiment on LOX IMVI melanoma, greater than 25000 nM; with MALME-3M melanoma, greater than 25000 nM; with NCI-H460 lung, 11.4 µM; in the experiment with NCI/ADR-RES ovarian it was greater than 25000 nM; in the experiment with SK-MEL-28 melanoma it was greater than 25 µM. Besides, the GI50 in the experiment on SK-OV-3 ovarian was 1500 nM; in the experiment on SR leukemia it was greater than 16900 nM; in the experiment on UACC-257 melanoma it was greater than 25 µM; in the experiment on UO-31 renal, 2260 nM. The TGI in the experiment with KM12 colon, in the experiment on LOX IMVI melanoma, with MALME-3M melanoma, in the experiment on NCI-H460 lung, with NCI/ADR-RES ovarian and in the experiment on SK-MEL-28 melanoma was greater than 25 µM each time. The TGI in the experiment on SK-OV-3 ovarian, in the experiment with SR leukemia, with UACC-257 melanoma and in the experiment with UO-31 renal was greater than 25 µM throughout.

Take `CCCC(=O)OC(OC(=O)CCC)c1ccc([N+](=O)[O-])o1`: the TGI was greater than 100 µM in the experiment on KM12 colon; 58.5 µM in the experiment on LOX IMVI melanoma; 40.3 µM with MALME-3M melanoma; greater than 100 µM in the experiment on NCI-H460 lung; greater than 100 µM in the experiment with NCI/ADR-RES ovarian; 46.9 µM with SK-MEL-28 melanoma. Also, the TGI is greater than 100 µM in the experiment with SK-OV-3 ovarian, 53.1 µM in the experiment on SR leukemia, 51.9 µM in the experiment with UACC-257 melanoma and 56.7 µM with UO-31 renal.

`C[C@H]1CC[C@@H]2[C@@H](C)[C@H]3[C@H](C[C@H]4[C@@H]5CC=C6C[C@@H](O)CC[C@]6(C)[C@H]5CC[C@]34C)N2C1`: the TGI with KM12 colon, with LOX IMVI melanoma, in the experiment on MALME-3M melanoma, in the experiment with NCI-H460 lung, in the experiment with NCI/ADR-RES ovarian and with SK-MEL-28 melanoma was greater than 100 µM each time. Further, the TGI with SK-OV-3 ovarian is greater than 100 µM; in the experiment with SR leukemia it was 56.1 µM; in the experiment with UACC-257 melanoma it was greater than 100 µM; in the experiment with UO-31 renal, greater than 100 µM.

Take `O=S(=O)(Nc1ccc(Cl)c(Cl)c1)c1ccc(-c2cnc(C3CC3)o2)cc1`: the GI50 in the experiment on KM12 colon was 371 nM; in the experiment with LOX IMVI melanoma, 586 nM; in the experiment with MALME-3M melanoma, 2670 nM; with NCI-H460 lung, 0.368 µM; in the experiment with NCI/ADR-RES ovarian it was 345 nM; in the experiment with SK-MEL-28 melanoma, 4.19 µM. The GI50 in the experiment on SK-OV-3 ovarian is 713 nM; in the experiment on SR leukemia, 122 nM; in the experiment with UACC-257 melanoma, 4.62 µM; in the experiment on UO-31 renal it was 498 nM. Besides, the TGI in the experiment on KM12 colon was 15.4 µM; in the experiment on LOX IMVI melanoma it was 19.3 µM; in the experiment on MALME-3M melanoma, 25.8 µM; in the experiment on NCI-H460 lung, 11.6 µM; in the experiment on NCI/ADR-RES ovarian, 4.91 µM; with SK-MEL-28 melanoma, 21.5 µM. Besides, the TGI with SK-OV-3 ovarian amounted to 39.7 µM; with SR leukemia it was 62.6 µM; with UACC-257 melanoma, 27.1 µM; in the experiment on UO-31 renal, 15.9 µM.
